Assay results from patent US10070645B2, “N-cycloalkyl-N-{[2-(1-substitutedcycloalkyl)phenyl]methylene}-(thio)carboxamide derivatives” (BAYER CROPSCIENCE AKTIENGESELLSCHAFT, priority 2013, dated 2018).

Experiment: log P by HPLC on a reversed-phase column (C 18), EEC Directive 79/831 Annex V.A8
Assay type: physicochemical
Conditions: for logP: 0.1% aqueous formic acid and acetonitrile; for chromatographic logP: reversed-phase HPLC column (C 18), preparation examples
Protocol: In table 1, the log P values were determined in accordance with EEC Directive 79/831 Annex V.A8 by HPLC (High Performance Liquid Chromatography) on a reversed-phase column (C 18), using the method described below:
Temperature: 40° C.; Mobile phases: 0.1% aqueous formic acid and acetonitrile; linear gradient from 10% acetonitrile to 90% acetonitrile.
Calibration was carried out using unbranched alkan-2-ones (comprising 3 to 16 carbon atoms) with known log P values (determination of the log P values by the retention times using linear interpolation between two successive alkanones). lambda-max-values were determined using UV-spectra from 200 nm to 400 nm and the peak values of the chromatographic signals.

[1] = Table 4 (aldehydes of formula IV), HPLC C 18, 40° C.
[2] = HPLC on reversed-phase column (C 18), 40° C., linear gradient 10% to 90% acetonitrile
[3] = HPLC, reversed-phase column (C 18), 40° C., linear gradient 10% to 90% acetonitrile

logP [3]	Compound	other results
	1-(2-formyl-4-methylphenyl)cyclopropanecarbonitrile [IV.16]	logP [1]: 2.08
	3-fluoro-2-(1-methylcyclopropyl)benzaldehyde [IV.14]	logP [1]: 3.13
	Cn1nc(C(F)F)c(C(=O)N(Cc2cc(Cl)ccc2C2(C)CC2(Cl)Cl)C2CC2)c1F (racemic) [I.168]	logP [2]: 4.39
	Cn1nc(C(F)F)c(C(=O)N(Cc2cc(C3CC3)ccc2C2(C)CC2(Cl)Cl)C2CC2)c1F (racemic) [I.169]	logP [2]: 4.59
	Cn1nc(C(F)F)c(C(=O)N(Cc2cc(F)ccc2C2(C)CC2(Cl)Cl)C2CC2)c1F (racemic) [I.170]	logP [2]: 4.09
	Cn1nc(C(F)F)c(C(=O)N(Cc2cc(F)ccc2C2(C)CC2(Cl)Cl)C2CC2)c1Cl (racemic) [I.171]	logP [2]: 4.21
	Cc1ccc(C2(C)CC2(Cl)Cl)c(CN(C(=O)c2c(C(F)F)nn(C)c2F)C2CC2)c1 (racemic) [I.172]	logP [2]: 4.24
	Cn1nc(C(F)F)c(C(=O)N(Cc2c(C3(C)CC3(Cl)Cl)ccc(Cl)c2Cl)C2CC2)c1F (racemic) [I.173]	logP [2]: 4.71
	Cn1nc(C(F)F)c(C(=O)N(Cc2c(C3(C)CC3(Cl)Cl)ccc(Cl)c2Cl)C2CC2)c1Cl (racemic) [I.174]	logP [2]: 4.81
	Cn1nc(C(F)F)c(C(=O)N(Cc2c(C3(C)CC3(Cl)Cl)ccc(Cl)c2F)C2CC2)c1Cl (racemic) [I.175]	logP [2]: 4.61
	Cn1nc(C(F)F)c(C(=O)N(Cc2c(C3(C)CC3(Cl)Cl)ccc(Cl)c2F)C2CC2)c1F (racemic) [I.176]	logP [2]: 4.46
	Cc1ccc(C2(C)CC2(Cl)Cl)c(CN(C(=O)c2c(C(F)F)nn(C)c2Cl)C2CC2)c1Cl (racemic) [I.177]	logP [2]: 4.78
	Cc1ccc(C2(C)CC2(Cl)Cl)c(CN(C(=O)c2c(C(F)F)nn(C)c2F)C2CC2)c1Cl (racemic) [I.178]	logP [2]: 4.67
	Cc1ccc(C2(C)CC2(Cl)Cl)c(CN(C(=O)c2c(C(F)F)nn(C)c2F)C2CC2)c1F (racemic) [I.179]	logP [2]: 4.41
	CC1(c2ccc(Cl)cc2Br)CC1 [2-bromo-4-chloro-1-(1-methylcyclopropyl)benzene]	chromatographic logP: 4.93
	C=C(C)c1ccc(Cl)cc1Br [2-bromo-4-chloro-1-(prop-1-en-2-yl)benzene]	chromatographic logP: 4.91
3.85	Cn1nc(C(F)F)c(C(=O)N(Cc2ccccc2C2(C)CC2)C2CC2)c1F [I.001]	
4.01	Cn1nc(C(F)F)c(C(=O)N(Cc2ccccc2C2(C)CC2)C2CC2)c1Cl [I.002]	
4.46	Cn1nc(C(F)F)c(C(=S)N(Cc2ccccc2C2(C)CC2)C2CC2)c1F [I.003]	
4.63	Cn1nc(C(F)F)c(C(=S)N(Cc2ccccc2C2(C)CC2)C2CC2)c1Cl [I.004]	
4.30	Cn1nc(C(F)F)c(C(=O)N(Cc2cccc(Cl)c2C2(C)CC2)C2CC2)c1F [I.005]	
4.44	Cn1nc(C(F)F)c(C(=O)N(Cc2cccc(Cl)c2C2(C)CC2)C2CC2)c1Cl [I.006]	
5.74	Cn1nc(C(F)F)c(C(=O)N(Cc2cccc(C3CCCCC3)c2C2(C)CC2)C2CC2)c1F [I.007]	
3.89	Cn1nc(C(F)F)c(C(=O)N(Cc2cccc(F)c2C2(C)CC2)C2CC2)c1F [I.008]	
3.99	Cn1nc(C(F)F)c(C(=O)N(Cc2cccc(F)c2C2(C)CC2)C2CC2)c1Cl [I.009]	

logP [3]	Compound	other results
4.49	Cn1nc(C(F)F)c(C(=S)N(Cc2cccc(F)c2C2(C)CC2)C2CC2)c1F [I.010]	
4.64	Cn1nc(C(F)F)c(C(=S)N(Cc2cccc(F)c2C2(C)CC2)C2CC2)c1Cl [I.011]	
4.73	Cn1nc(C(F)F)c(C(=O)N(Cc2cccc(-c3ccccc3)c2C2(C)CC2)C2CC2)c1F [I.012]	
5.78	Cn1nc(C(F)F)c(C(=O)N(Cc2cccc(C3=CC4CCC3C4)c2C2(C)CC2)C2CC2)c1F (stereo not drawn) [I.013]	
5.59	Cn1nc(C(F)F)c(C(=O)N(Cc2cccc(C3=CCCCC3)c2C2(C)CC2)C2CC2)c1F [I.014]	
4.64	C=C(C)c1cccc(CN(C(=O)c2c(C(F)F)nn(C)c2F)C2CC2)c1C1(C)CC1 [I.015]	
3.53	Cn1nc(C(F)F)c(C(=O)N(Cc2ccc3c(c2C2(C)CC2)OCO3)C2CC2)c1F [I.016]	
3.67	Cn1nc(C(F)F)c(C(=O)N(Cc2ccc3c(c2C2(C)CC2)OCO3)C2CC2)c1Cl [I.017]	
4.43	Cn1nc(C(F)F)c(C(=O)N(Cc2ccc(Cl)cc2C2(C)CC2)C2CC2)c1F [I.018]	
4.54	Cn1nc(C(F)F)c(C(=O)N(Cc2ccc(Cl)cc2C2(C)CC2)C2CC2)c1Cl [I.019]	
4.51	Cn1nc(C(F)F)c(C(=O)N(Cc2ccc(C3CC3)cc2C2(C)CC2)C2CC2)c1F [I.020]	
3.92	Cn1nc(C(F)F)c(C(=O)N(Cc2ccc(F)cc2C2(C)CC2)C2CC2)c1F [I.021]	
4.06	Cn1nc(C(F)F)c(C(=O)N(Cc2ccc(F)cc2C2(C)CC2)C2CC2)c1Cl [I.022]	
4.56	Cn1nc(C(F)F)c(C(=S)N(Cc2ccc(F)cc2C2(C)CC2)C2CC2)c1F [I.023]	
4.74	Cn1nc(C(F)F)c(C(=S)N(Cc2ccc(F)cc2C2(C)CC2)C2CC2)c1Cl [I.024]	
4.90	CC(C)c1ccc(CN(C(=O)c2c(C(F)F)nn(C)c2F)C2CC2)c(C2(C)CC2)c1 [I.025]	
4.21	Cc1ccc(CN(C(=O)c2c(C(F)F)nn(C)c2F)C2CC2)c(C2(C)CC2)c1 [I.026]	
4.36	Cc1ccc(CN(C(=O)c2c(C(F)F)nn(C)c2Cl)C2CC2)c(C2(C)CC2)c1 [I.027]	
3.69	COc1ccc(CN(C(=O)c2c(C(F)F)nn(C)c2F)C2CC2)c(C2(C)CC2)c1 [I.028]	
3.83	COc1ccc(CN(C(=O)c2c(C(F)F)nn(C)c2Cl)C2CC2)c(C2(C)CC2)c1 [I.029]	
4.34	COc1ccc(CN(C(=S)c2c(C(F)F)nn(C)c2F)C2CC2)c(C2(C)CC2)c1 [I.030]	
4.51	COc1ccc(CN(C(=S)c2c(C(F)F)nn(C)c2Cl)C2CC2)c(C2(C)CC2)c1 [I.031]	
4.91	Cn1nc(C(F)F)c(C(=O)N(Cc2ccc(Oc3ccccc3)cc2C2(C)CC2)C2CC2)c1F [I.032]	
4.93	Cn1nc(C(F)F)c(C(=O)N(Cc2ccc(-c3ccccc3)cc2C2(C)CC2)C2CC2)c1F [I.033]	
4.15	Cn1ccc(-c2ccc(CN(C(=O)c3c(C(F)F)nn(C)c3F)C3CC3)c(C3(C)CC3)c2)c1 [I.034]	

logP [3]	Compound	other results
5.26	Cc1ccccc1-c1ccc(CN(C(=O)c2c(C(F)F)nn(C)c2F)C2CC2)c(C2(C)CC2)c1 [I.035]	
5.03	Cn1nc(C(F)F)c(C(=O)N(Cc2ccc(-c3ccc(F)c(F)c3)cc2C2(C)CC2)C2CC2)c1F [I.036]	
3.94	Cn1nc(C(F)F)c(C(=O)N(Cc2ccc(C3=CCOCC3)cc2C2(C)CC2)C2CC2)c1F [I.037]	
4.96	Cn1nc(C(F)F)c(C(=O)N(Cc2ccc(-c3cccc(F)c3)cc2C2(C)CC2)C2CC2)c1F [I.038]	
4.23	Cn1nc(C(F)F)c(C(=O)N(Cc2ccc(-c3ccoc3)cc2C2(C)CC2)C2CC2)c1F [I.039]	
4.61	Cn1nc(C(F)F)c(C(=O)N(Cc2ccc(-c3ccsc3)cc2C2(C)CC2)C2CC2)c1F [I.040]	
4.96	Cn1nc(C(F)F)c(C(=O)N(Cc2ccc(-c3ccc(F)cc3)cc2C2(C)CC2)C2CC2)c1F [I.041]	
5.31	Cc1ccc(F)cc1-c1ccc(CN(C(=O)c2c(C(F)F)nn(C)c2F)C2CC2)c(C2(C)CC2)c1 [I.042]	
4.73	C=C(C)c1ccc(CN(C(=O)c2c(C(F)F)nn(C)c2F)C2CC2)c(C2(C)CC2)c1 [I.043]	
2.35	Cn1nc(C(F)F)c(C(=O)N(Cc2ccc(-c3cccnc3)cc2C2(C)CC2)C2CC2)c1F [I.044]	
2.00	Cn1nc(C(F)F)c(C(=O)N(Cc2ccc(-c3ccncc3)cc2C2(C)CC2)C2CC2)c1F [I.045]	
3.09	Cn1nc(C(F)F)c(C(=O)N(Cc2ccc(-c3ccc4ncccc4c3)cc2C2(C)CC2)C2CC2)c1F [I.046]	
3.87	Cn1nc(C(F)F)c(C(=O)N(Cc2ccc(C3CCOCC3)cc2C2(C)CC2)C2CC2)c1F [I.047]	
4.01	Cn1nc(C(F)F)c(C(=O)N(Cc2cc(F)c(F)cc2C2(C)CC2)C2CC2)c1F [I.048]	
4.16	Cn1nc(C(F)F)c(C(=O)N(Cc2cc(F)c(F)cc2C2(C)CC2)C2CC2)c1Cl [I.049]	
4.90	Cn1nc(C(F)F)c(C(=S)N(Cc2cc(F)c(F)cc2C2(C)CC2)C2CC2)c1Cl [I.050]	
4.36	Cc1cc(CN(C(=O)c2c(C(F)F)nn(C)c2F)C2CC2)c(C2(C)CC2)cc1C [I.051]	
4.53	Cc1cc(CN(C(=O)c2c(C(F)F)nn(C)c2Cl)C2CC2)c(C2(C)CC2)cc1C [I.052]	
3.33	COc1cc(CN(C(=O)c2c(C(F)F)nn(C)c2F)C2CC2)c(C2(C)CC2)cc1OC [I.053]	
3.46	COc1cc(CN(C(=O)c2c(C(F)F)nn(C)c2Cl)C2CC2)c(C2(C)CC2)cc1OC [I.054]	
3.96	COc1cc(CN(C(=S)c2c(C(F)F)nn(C)c2F)C2CC2)c(C2(C)CC2)cc1OC [I.055]	
4.09	COc1cc(CN(C(=S)c2c(C(F)F)nn(C)c2Cl)C2CC2)c(C2(C)CC2)cc1OC [I.056]	
4.56	Cn1nc(C(F)F)c(C(=O)N(Cc2cc(Br)ccc2C2(C)CC2)C2CC2)c1Cl [I.057]	
4.36	Cn1nc(C(F)F)c(C(=O)N(Cc2cc(Br)ccc2C2(C)CC2)C2CC2)c1F [I.058]	
4.34	Cn1nc(C(F)F)c(C(=O)N(Cc2cc(C(F)(F)F)ccc2C2(C)CC2)C2CC2)c1F [I.059]	
